Like-named read-outs stand apart in the source and are kept apart here.
Columns and labels:
[1] = tested on: K562-TAX; assay: MTS cytotoxicity assay, 72 h; format: cell-based; settings: read-out: IC50 K562-TAX
[2] = tested on: CCRF-CEM; assay: MTS cytotoxicity assay, 72 h; format: cell-based; settings: Homo sapiens, CCRF-CEM, 72 h, read-out: IC50 CCRF-CEM, MTS assay, 3-day incubation, mean ± SD of 3 experiments
[3] = tested on: HCT116p53–/–; assay: MTS cytotoxicity assay, 72 h; format: cell-based; settings: read-out: IC50 HCT116p53–/–
[4] = tested on: K562; assay: MTS cytotoxicity assay, 72 h; format: cell-based; settings: Homo sapiens, K562, 72 h, read-out: IC50 K562
[5] = tested on: U2OS; assay: MTS cytotoxicity assay, 72 h; format: cell-based, human
[6] = tested on: HUVEC; assay: MTS cytotoxicity assay, 72 h; format: cell-based; settings: Homo sapiens, 3-day incubation, mean ± SD
[7] = tested on: CCRF-CEM lymphoblasts; assay: FACS analysis of cell cycle, apoptosis, mitosis and polyploidy; settings: for Mitosis: phospho-Histone (Ser10); for Apoptosis: sub-G0/G1 DNA content, % of positive cells
[8] = tested on: BJ; assay: MTS cytotoxicity assay, 72 h; format: cell-based; settings: Homo sapiens, read-out: IC50 BJ
[9] = tested on: microtubules in U2OS cells; assay: Immunofluorescence of microtubule organization; format: cell-based, human; settings: 10 μM, 15 h
Method: DMSO at appropriate dilution served as control.
Immunofluorescence microscopy on formaldehyde-fixed, Triton X-100 extracted cells (F/Tx) was performed as previously described. Extraction and fixation steps were carried out in a microtubule stabilizing buffer consisting of 0.1 M KMes, 2 mM EGTA, 2 mM MgCl2, 4% polyethylene glycol 6000, pH 6.9. Cells were fixed for 30 min in 3% formaldehyde before extraction for 4 min with 0.5% Triton X-100 at 37 °C. Mouse monoclonal antibody TU-01 (IgG1) directed to α-tubulin , in the form of hybridoma spent culture medium was diluted 1:10. The DyLight 549-conjugated antimouse antibody (Jackson Immunoresearch Laboratories, West Grove, PA, USA) was diluted 1:500. Samples were mounted in MOWIOL 4–88 (Calbiochem, San Diego, CA, USA) supplemented with 4,6-diamidino-2-phenylindole (DAPI; Sigma-Aldrich, St. Louis, MO, USA) and examined with an Olympus AX-70 Provis microscope (Olympus, Hamburg, Germany) equipped with a 60×/1.0 water objective.

[10] = tested on: HCT116; assay: MTS cytotoxicity assay, 72 h; format: cell-based; settings: Homo sapiens, HCT-116, 72 h, read-out: IC50 HCT116
[11] = tested on: CEM-DNR; assay: MTS cytotoxicity assay, 72 h; format: cell-based; settings: Homo sapiens, read-out: IC50 CEM-DNR
[12] = tested on: MRC-5; assay: MTS cytotoxicity assay, 72 h; format: cell-based; settings: Homo sapiens, MRC5, 72 h, read-out: IC50 MRC-5
[13] = tested on: panel of cell lines
[14] = tested on: panel of cell lines; assay: cells; settings: read-out: IC50 values, cancer cell lines
[15] = Homo sapiens, U2OS, 72 h, read-out: IC50 U2OS, MTS assay, 3-day incubation, mean ± SD

Row | SMILES | IC50 [1] | IC50 [2] | IC50 [3] | IC50 [4] | IC50 [5, 15] | IC50 [6] | G0/G1 ([7]; 1×IC50, 24 h) | G2/M ([7]; 1×IC50, 24 h) | Polyploid cells ([7]; 1×IC50, 24 h) | S ([7]; 1×IC50, 24 h) | Mitosis ([7]; 1×IC50, 24 h) | Apoptosis ([7]; 1×IC50, 24 h) | G0/G1 ([7]; 5×IC50, 24 h) | G2/M ([7]; 5×IC50, 24 h) | Polyploid cells ([7]; 5×IC50, 24 h) | S ([7]; 5×IC50, 24 h) | Mitosis ([7]; 5×IC50, 24 h) | Apoptosis ([7]; 5×IC50, 24 h) | IC50 [8] | IC50 [10] | further results
1 | COc1cc2c(c(OC)c1OC)-c1ccc(OC)c(=O)cc1[C@@H](n1cc(CCCC3=C4C(C)=CC(C)=[N+]4[B-](F)(F)n4c(C)cc(C)c43)[n+](C)n1)CC2 [CB7] | 0.62 ± 0.084 µM | 840 ± 58 nM | 1.43 ± 0.162 µM | 770 ± 22.4 nM | < 2 µM | 1.4 ± 0.104 µM | 26.66% | 45.89% | 21.60% | 27.45% | 19.77% | 13.02% | 6.62% | 88.84% | 23.77% | 4.54% | 68.32% | 14.67% | > 50 µM | 1.51 ± 0.33 µM | IC50 ([5]; read-out: IC50 U2OS, MTS assay, 3-day incubation, mean ± SD): 1.96 ± 0.096 µM; effect on microtubules (in words) [9]: microtubule remnants were detectable; IC50 [11]: 1.34 ± 0.229 µM; IC50 [12]: > 50 µM; RI (resistance index) [13]: 1.22; SI (selectivity index) [13]: >38.40
2 | COc1cc2c(c(OC)c1OC)-c1ccc(N(C)CCCCC3=C4C(C)=CC(C)=[N+]4[B-](F)(F)n4c(C)cc(C)c43)c(=O)cc1[C@@H](NC(C)=O)CC2 [CB11] | 5.18 ± 0.198 µM | 2500 ± 567 nM | 5.52 ± 0.762 µM | 1850 ± 204 nM | 4.62 ± 1.23 µM | 5.52 ± 0.29 µM | 35.98% | 30.38% | 13.64% | 33.64% | 4.83% | 5.26% | 10.48% | 79.29% | 24.88% | 10.23% | 59.86% | 16.42% | > 50 µM | 4.93 ± 0.729 µM | IC50 [14]: 2.5 to 9 µM; IC50 [11]: 5.49 ± 0.935 µM; IC50 [12]: > 50 µM; RI (resistance index) [13]: 2.45; SI (selectivity index) [13]: >12.87
3 | COc1cc2c(c(OC)c1OC)-c1ccc(N(C)C(=O)CCC3=C4C(C)=CC(C)=[N+]4[B-](F)(F)n4c(C)cc(C)c43)c(=O)cc1[C@@H](NC(C)=O)CC2 [CB12] | 8.07 ± 0.706 µM | 5540 ± 475 nM | 8.35 ± 0.549 µM | 4250 ± 890 nM | 9.12 ± 0.174 µM | 8.24 ± 0.77 µM | 32.27% | 26.62% | 18.91% | 41.12% | 9.86% | 4.12% | 21.05% | 53.56% | 23.39% | 25.39% | 23.11% | 10.47% | > 50 µM | 8.09 ± 0.268 µM | IC50 [14]: 2.5 to 9 µM; IC50 [11]: 36 ± 2.04 µM; IC50 [12]: > 50 µM; RI (resistance index) [13]: 4.50; SI (selectivity index) [13]: >7.07

From PMC12261228 (ACS Pharmacology & Translational Science, 2025)
